According to ChEMBL document CHEMBL1146671, “Non-peptide alpha v beta 3 antagonists. Part 7: 3-Substituted tetrahydro-naphthyridine derivatives” (Bioorg Med Chem Lett, 2004):
pIC50: −log10 of the molar value.

Columns and labels:
[1] = Half-life of compound was determined in dogs; format: ADME, organism-based, Canis lupus familiaris; conditions: dog, in vivo
[2] = target: Integrin alpha-V/beta-3 (Homo sapiens, UniProt P05106+P06756); assay: Displacement of [125I]L-775,219 from human recombinant alphaV-beta3 integrin; format: protein-complex assay
[3] = Bioavailability in dog; format: ADME, organism-based, Canis lupus familiaris; conditions: in vivo
[4] = Hammett constant was determined; format: functional
[5] = Clearance of compound was determined in dogs; format: ADME, organism-based, Canis lupus familiaris; conditions: dog, in vivo

Integrin alpha-V/beta-3, sequence (P05106 27-788 limits assumed): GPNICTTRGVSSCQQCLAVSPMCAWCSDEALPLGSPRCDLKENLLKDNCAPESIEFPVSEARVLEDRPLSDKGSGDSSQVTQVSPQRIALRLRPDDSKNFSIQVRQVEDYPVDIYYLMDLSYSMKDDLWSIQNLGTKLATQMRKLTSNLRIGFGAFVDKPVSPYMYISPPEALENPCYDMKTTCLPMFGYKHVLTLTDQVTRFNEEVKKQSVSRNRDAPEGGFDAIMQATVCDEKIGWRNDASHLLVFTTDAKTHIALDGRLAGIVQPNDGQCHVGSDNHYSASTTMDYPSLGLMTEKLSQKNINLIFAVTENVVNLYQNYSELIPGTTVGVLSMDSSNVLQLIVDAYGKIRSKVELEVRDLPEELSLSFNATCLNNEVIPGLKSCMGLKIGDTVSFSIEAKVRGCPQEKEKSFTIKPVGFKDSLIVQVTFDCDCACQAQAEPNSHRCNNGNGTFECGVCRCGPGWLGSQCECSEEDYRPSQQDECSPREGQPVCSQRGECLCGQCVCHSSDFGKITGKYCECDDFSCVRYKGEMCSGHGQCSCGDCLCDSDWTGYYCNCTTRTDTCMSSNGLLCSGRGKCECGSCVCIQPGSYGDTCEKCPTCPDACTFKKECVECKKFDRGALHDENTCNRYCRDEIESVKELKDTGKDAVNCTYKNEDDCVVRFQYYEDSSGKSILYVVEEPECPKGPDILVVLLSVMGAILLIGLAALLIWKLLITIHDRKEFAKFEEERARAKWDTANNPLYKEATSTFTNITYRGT
Integrin alpha-V/beta-3, sequence (P06756 31-889 limits assumed): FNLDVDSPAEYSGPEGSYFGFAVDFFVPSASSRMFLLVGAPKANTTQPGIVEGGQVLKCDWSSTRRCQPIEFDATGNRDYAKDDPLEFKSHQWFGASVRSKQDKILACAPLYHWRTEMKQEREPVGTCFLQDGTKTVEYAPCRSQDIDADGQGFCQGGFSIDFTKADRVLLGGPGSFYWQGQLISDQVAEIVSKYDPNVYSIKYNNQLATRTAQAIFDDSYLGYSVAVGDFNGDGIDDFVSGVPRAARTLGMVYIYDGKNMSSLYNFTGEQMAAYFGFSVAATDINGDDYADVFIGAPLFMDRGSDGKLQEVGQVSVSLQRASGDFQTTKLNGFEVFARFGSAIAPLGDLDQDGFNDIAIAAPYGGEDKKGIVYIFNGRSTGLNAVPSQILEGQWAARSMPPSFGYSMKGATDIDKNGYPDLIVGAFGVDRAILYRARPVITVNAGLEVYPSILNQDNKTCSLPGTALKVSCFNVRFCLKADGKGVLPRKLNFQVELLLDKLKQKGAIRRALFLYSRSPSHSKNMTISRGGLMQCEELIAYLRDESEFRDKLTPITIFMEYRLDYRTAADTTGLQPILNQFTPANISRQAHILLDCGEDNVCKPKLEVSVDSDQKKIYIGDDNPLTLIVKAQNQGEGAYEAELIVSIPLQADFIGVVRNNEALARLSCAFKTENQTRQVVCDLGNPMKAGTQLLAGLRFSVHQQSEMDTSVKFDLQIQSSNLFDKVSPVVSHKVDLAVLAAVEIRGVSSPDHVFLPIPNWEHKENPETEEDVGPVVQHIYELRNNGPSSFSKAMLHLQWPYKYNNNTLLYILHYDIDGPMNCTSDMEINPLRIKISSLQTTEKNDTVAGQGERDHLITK
Integrin alpha-V/beta-3, sequence (P06756 891-1048 limits assumed): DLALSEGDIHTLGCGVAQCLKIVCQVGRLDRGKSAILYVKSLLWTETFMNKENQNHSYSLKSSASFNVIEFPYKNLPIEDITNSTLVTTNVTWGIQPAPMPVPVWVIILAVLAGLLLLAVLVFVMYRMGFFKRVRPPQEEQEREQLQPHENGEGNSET

Structure (SMILES) | half-life [1] [h] | pIC50 [2] | bioavailability [3] [%] | clearance [5] [mL/min/kg] | Sigmap [4]
COc1ccc([C@H](CC(=O)O)N(C)C(=O)CCCCc2nc3c(cc2C)CCCN3)cn1 | 4.9 | 9.52 | 65 | 2.4 | -0.14
COc1ccc([C@H](CC(=O)O)N(C)C(=O)CCCCc2nc3c(cc2[N+](=O)[O-])CCCN3)cn1 |  | 7.44 |  |  | 0.81
COc1ccc([C@H](CC(=O)O)N(C)C(=O)CCCCc2nc3c(cc2NC(C)=O)CCCN3)cn1 |  | 9.22 |  |  | 0
COc1ccc([C@H](CC(=O)O)N(C)C(=O)CCCCc2nc3c(cc2-c2ccccc2)CCCN3)cn1 |  | 9.05 |  |  | 0.05
COc1ccc([C@H](CC(=O)O)N(C)C(=O)CCCCc2ccc3c(n2)NCCC3)cn1 | 5.8 | 9.15 | 76 |  | 0

More lines, in order of rising pIC50 [2], values ahead:

half-life [1] [h] | pIC50 [2] | bioavailability [3] [%] | clearance [5] [mL/min/kg] | Structure (SMILES) | Sigmap [4]
 | 7.78 |  |  | COc1ccc([C@H](CC(=O)O)N(C)C(=O)CCCCc2nc3c(cc2C#N)CCCN3)cn1 | 0.71
 | 8.64 |  |  | COc1ccc([C@H](CC(=O)O)N(C)C(=O)CCCCc2nc3c(cc2Br)CCCN3)cn1 | 0.26
 | 9.05 |  |  | COc1ccc([C@H](CC(=O)O)N(C)C(=O)CCCCc2nc3c(cc2NS(C)(=O)=O)CCCN3)cn1 | 0.03
 | 9.40 |  |  | COc1ccc([C@H](CC(=O)O)N(C)C(=O)CCCCc2nc3c(cc2N)CCCN3)cn1 | -0.3
 | 9.52 |  |  | C=Cc1cc2c(nc1CCCCC(=O)N(C)[C@@H](CC(=O)O)c1ccc(OC)nc1)NCCC2 | -0.14
